Laboratory results reported in patent US9708314B2, “Heterocyclic amide compound” (NISSAN CHEMICAL INDUSTRIES, LTD., priority 2013, dated 2017).

Columns and labels:
Format in all cases: in vivo
[1] = test system: Echinochloa oryzacola Vasing.; assay: Test Example 2: herbicidal activity, application during weed generation in submerged conditions; conditions: Eighteenth Table
Procedure, shortened: (§1)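 Alluvial soil in Wagner pots flooded to 4 cm water depth; seeds sown mixed, grown in greenhouse at 25–30 °C. At one- to two-leaf stage, emulsion diluted with water to the set rate (g/ha) was applied to the water surface. Effect scored 0–5 by herbicidal ratio three weeks later.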

[2] = test system: Beta vulgaris ssp. vulgaris; assay: Test Example 4: effect on crop by application to foliage (diluvial soil, plastic box); conditions: for f (Beta vulgaris ssp. vulgaris) effect on crop grade: foliage application
Procedure, shortened: (§2)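 Scores run from 0 (herbicidal ratio ≤5%) to 5 (≥90%, almost fully withered) and were assessed three weeks after foliar spraying. Seedlings had been raised for 14 days at 25-30° C in sterilized diluvial soil before treatment, with the emulsion diluted in water to the stated g/ha dose.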

[3] = test system: Brassica campestris L.; assay: as above; conditions: for g (Brassica campestris L.) effect on crop grade: foliage application
Procedure, shortened: as §2

[4] = test system: Glycine max; assay: as above; conditions: for c (Glycine max) effect on crop grade: foliage application
Procedure, shortened: as §2

[5] = test system: Triticum aestivum; assay: as above; conditions: for e (Triticum aestivum) effect on crop grade: foliage application
Procedure, shortened: as §2

[6] = test system: Zea mays; assay: as above; conditions: for b (Zea mays) effect on crop grade: foliage application
Procedure, shortened: as §2

[7] = test system: directly sowed Oryza sativa; assay: as above; conditions: for d (directly sowed Oryza sativa) effect on crop grade: foliage application
Procedure, shortened: as §2

[8] = test system: Monochoria vaginalis; assay: Test Example 2: herbicidal activity, application during weed generation in submerged conditions; conditions: Eighteenth Table; application herbicide amount 320 g/ha
Procedure, shortened: as §1

[9] = test system: Scirpus juncoides; assay: as above; conditions: Eighteenth Table
Procedure, shortened: as §1

[10] = application herbicide amount 320 g/ha
[11] = application to foliage, application herbicide amount 320 g/ha
[12] = application to foliage, 320 g/ha
[13] = application herbicide amount 260 g/ha
[14] = application to foliage, 256 g/ha

| SMILES | A (Echinochloa oryzicola Vasing.) herbicidal ratio grade [1, 10] | C (Monochoria vaginalis) herbicidal ratio grade [8] | B (Scirpus juncoides) herbicidal ratio grade [9, 10] | effect on crop, f (Beta vulgaris ssp. vulgaris) [2, 12] | effect on crop, g (Brassica campestris L.) [3, 12] | effect on crop, c (Glycine max) [4, 12] | effect on crop, e (Triticum aestivum) [5, 12] | effect on crop, d (directly sowed Oryza sativa) [7, 12] | other results |
| --- | --- | --- | --- | --- | --- | --- | --- | --- | --- |
| COc1ccc(N(C)c2nnc3c(C(=O)Nc4nnco4)ccc(C(F)(F)F)n23)cc1 [1-171] | 4 (Herbicidal ratio of 70% or more and less than 90%) | – | – | – | – | – | – | – | f: effect on crop, Beta vulgaris ssp. vulgaris [2, 11]: 5 (Herbicidal ratio of 90% or more (almost completely withered)); g: effect on crop, Brassica campestris L. [3, 11]: 3 (Herbicidal ratio of 40% or more and less than 70%); d: effect on crop, Glycine max [4, 11]: 3 (Herbicidal ratio of 40% or more and less than 70%); e: effect on crop, Triticum aestivum [5, 11]: 0 (Herbicidal ratio of 5% or less (almost no effect)); c: effect on crop, Zea mays [6, 11]: 0 (Herbicidal ratio of 5% or less (almost no effect)); b: effect on crop, directly sowed Oryza sativa [7, 11]: 0 (Herbicidal ratio of 5% or less (almost no effect)) |
| COC(=O)Cn1nnnc1NC(=O)c1ccc(C(F)(F)F)n2c(C(C)C)nnc12 [2-046] | – | – | – | – | – | – | – | – | f (Beta vulgaris ssp. vulgaris) effect on crop grade ([2]; 320 g/ha): 2 (Herbicidal ratio of 20% or more and less than 40%); g (Brassica campestris L.) effect on crop grade ([3]; 320 g/ha): 0 (Herbicidal ratio of 5% or less (almost no effect)); c (Glycine max) effect on crop grade ([4]; 320 g/ha): 0 (Herbicidal ratio of 5% or less (almost no effect)); e (Triticum aestivum) effect on crop grade ([5]; 320 g/ha): 0 (Herbicidal ratio of 5% or less (almost no effect)); b (Zea mays) effect on crop grade ([6]; 320 g/ha): 0 (Herbicidal ratio of 5% or less (almost no effect)); d (directly sowed Oryza sativa) effect on crop grade ([7]; 320 g/ha): 0 (Herbicidal ratio of 5% or less (almost no effect)) |
| CC(C)Nc1nnc2c(C(=O)Nc3nnnn3C)ccc(C(F)(F)F)n12 [2-066] | 3 (Herbicidal ratio of 40% or more and less than 70%) | 3 (Herbicidal ratio of 40% or more and less than 70%) | – | – | – | – | – | – | f (Beta vulgaris ssp. vulgaris) effect on crop grade ([2]; 320 g/ha): 5 (Herbicidal ratio of 90% or more (almost completely withered)); g (Brassica campestris L.) effect on crop grade ([3]; 320 g/ha): 4 (Herbicidal ratio of 70% or more and less than 90%); c (Glycine max) effect on crop grade ([4]; 320 g/ha): 1 (Herbicidal ratio of 5% or more and less than 20%); e (Triticum aestivum) effect on crop grade ([5]; 320 g/ha): 3 (Herbicidal ratio of 40% or more and less than 70%); b (Zea mays) effect on crop grade ([6]; 320 g/ha): 4 (Herbicidal ratio of 70% or more and less than 90%); d (directly sowed Oryza sativa) effect on crop grade ([7]; 320 g/ha): 4 (Herbicidal ratio of 70% or more and less than 90%) |
| Cn1nnnc1NC(=O)c1ccc(C(F)(F)F)n2c(NCC(F)(F)F)nnc12 [2-081] | 2 (Herbicidal ratio of 20% or more and less than 40%) | 2 (Herbicidal ratio of 20% or more and less than 40%) | 2 (Herbicidal ratio of 20% or more and less than 40%) | 5 (Herbicidal ratio of 90% or more (almost completely withered)) | 4 (Herbicidal ratio of 70% or more and less than 90%) | 0 (Herbicidal ratio of 5% or less (almost no effect)) | 2 (Herbicidal ratio of 20% or more and less than 40%) | 3 (Herbicidal ratio of 40% or more and less than 70%) | – |
| CC(C)N(C)c1nnc2c(C(=O)Nc3nnnn3C)ccc(C(F)(F)F)n12 [2-082] | 5 (Herbicidal ratio of 90% or more (almost completely withered)) | 3 (Herbicidal ratio of 40% or more and less than 70%) | 4 (Herbicidal ratio of 70% or more and less than 90%) | 5 (Herbicidal ratio of 90% or more (almost completely withered)) | 5 (Herbicidal ratio of 90% or more (almost completely withered)) | 1 (Herbicidal ratio of 5% or more and less than 20%) | 4 (Herbicidal ratio of 70% or more and less than 90%) | 5 (Herbicidal ratio of 90% or more (almost completely withered)) | – |
| CN(c1nnc2c(C(=O)Nc3nnnn3C)ccc(C(F)(F)F)n12)C1CCCCC1 [2-083] | 3 (Herbicidal ratio of 40% or more and less than 70%) | 3 (Herbicidal ratio of 40% or more and less than 70%) | 3 (Herbicidal ratio of 40% or more and less than 70%) | 5 (Herbicidal ratio of 90% or more (almost completely withered)) | 1 (Herbicidal ratio of 5% or more and less than 20%) | 0 (Herbicidal ratio of 5% or less (almost no effect)) | 0 (Herbicidal ratio of 5% or less (almost no effect)) | 4 (Herbicidal ratio of 70% or more and less than 90%) | – |
| Cn1nnnc1NC(=O)c1ccc(C(F)(F)F)n2c(SCC3CC3)nnc12 [2-084] | 4 (Herbicidal ratio of 70% or more and less than 90%) | 3 (Herbicidal ratio of 40% or more and less than 70%) | 4 (Herbicidal ratio of 70% or more and less than 90%) | 5 (Herbicidal ratio of 90% or more (almost completely withered)) | 3 (Herbicidal ratio of 40% or more and less than 70%) | 1 (Herbicidal ratio of 5% or more and less than 20%) | 3 (Herbicidal ratio of 40% or more and less than 70%) | 3 (Herbicidal ratio of 40% or more and less than 70%) | – |
| Cn1nnnc1NC(=O)c1ccc(C(F)(F)F)n2c(SCC3CCCO3)nnc12 (stereo not shown) [2-085] | 4 (Herbicidal ratio of 70% or more and less than 90%) | 3 (Herbicidal ratio of 40% or more and less than 70%) | 4 (Herbicidal ratio of 70% or more and less than 90%) | 5 (Herbicidal ratio of 90% or more (almost completely withered)) | 4 (Herbicidal ratio of 70% or more and less than 90%) | 2 (Herbicidal ratio of 20% or more and less than 40%) | 3 (Herbicidal ratio of 40% or more and less than 70%) | 5 (Herbicidal ratio of 90% or more (almost completely withered)) | – |
| Cn1nnnc1NC(=O)c1ccc(C(F)(F)F)n2c(SCC#N)nnc12 [2-086] | 0 (Herbicidal ratio of 5% or less (almost no effect)) | 1 (Herbicidal ratio of 5% or more and less than 20%) | 2 (Herbicidal ratio of 20% or more and less than 40%) | 5 (Herbicidal ratio of 90% or more (almost completely withered)) | 3 (Herbicidal ratio of 40% or more and less than 70%) | 0 (Herbicidal ratio of 5% or less (almost no effect)) | 2 (Herbicidal ratio of 20% or more and less than 40%) | 4 (Herbicidal ratio of 70% or more and less than 90%) | – |
| Cn1nnnc1NC(=O)c1ccc(C(F)(F)F)n2c(CO)nnc12 [2-108] | 0 (Herbicidal ratio of 5% or less (almost no effect)) | – | 1 (Herbicidal ratio of 5% or more and less than 20%) | 5 (Herbicidal ratio of 90% or more (almost completely withered)) | 5 (Herbicidal ratio of 90% or more (almost completely withered)) | 0 (Herbicidal ratio of 5% or less (almost no effect)) | 1 (Herbicidal ratio of 5% or more and less than 20%) | 4 (Herbicidal ratio of 70% or more and less than 90%) | effect on crop, b (Zea mays) [6, 12]: 4 (Herbicidal ratio of 70% or more and less than 90%) |
| Cn1nnnc1NC(=O)c1ccc(C(F)(F)F)n2c(C=O)nnc12 [2-109] | – | – | – | – | – | – | – | – | A (Echinochloa oryzicola Vasing.) herbicidal ratio grade [1, 13]: 1 (Herbicidal ratio of 5% or more and less than 20%); B (Scirpus juncoides) herbicidal ratio grade [9, 13]: 1 (Herbicidal ratio of 5% or more and less than 20%); effect on crop, f (Beta vulgaris ssp. vulgaris) [2, 14]: 5 (Herbicidal ratio of 90% or more (almost completely withered)); effect on crop, g (Brassica campestris L.) [3, 14]: 4 (Herbicidal ratio of 70% or more and less than 90%); effect on crop, c (Glycine max) [4, 14]: 0 (Herbicidal ratio of 5% or less (almost no effect)); effect on crop, e (Triticum aestivum) [5, 14]: 1 (Herbicidal ratio of 5% or more and less than 20%); effect on crop, b (Zea mays) [6, 14]: 1 (Herbicidal ratio of 5% or more and less than 20%); effect on crop, d (directly sowed Oryza sativa) [7, 14]: 4 (Herbicidal ratio of 70% or more and less than 90%) |
| Cc1nnc(NC(=O)c2ccc(C(F)(F)F)n3nc(C(C)C)nc23)o1 [7-001] | – | – | – | 0 (Herbicidal ratio of 5% or less (almost no effect)) | 0 (Herbicidal ratio of 5% or less (almost no effect)) | 0 (Herbicidal ratio of 5% or less (almost no effect)) | 0 (Herbicidal ratio of 5% or less (almost no effect)) | 0 (Herbicidal ratio of 5% or less (almost no effect)) | effect on crop, b (Zea mays) [6, 12]: 0 (Herbicidal ratio of 5% or less (almost no effect)) |
